{
  "source": "paper doi:10.1101/2023.07.11.548539v1",
  "about": "“A side-by-side comparison of peptide-delivered antisense antibiotics employing different nucleotide mimics” (bioRxiv, 2023)",
  "tested_on": "outer membrane of Salmonella",
  "assay": "Outer membrane permeabilization (NPN fluorescence)",
  "type": "cell-based, Salmonella enterica serovar Typhimurium strain SL1344",
  "details": "test compounds 10 µM final, added at 14 min; NPN 10 µM; 5 mM HEPES, 5 mM glucose pH 7.2; CTAB and Polymyxin B positive controls",
  "procedure": "The experiments were performed by modifying previously published protocols ([48]–[50]). Salmonella (WT SL1344, JVS-1574) were grown overnight in 4 ml MHB medium at 37 °C (with shaking at 220 rpm). Then the culture was diluted 1:100 and grown until OD 0.5 (∼2×10^8 cfu/mL). This culture was harvested and washed two times with 5mM HEPES and further diluted to OD 0.2 in 5 mM HEPES supplemented with 5 mM Glucose (pH 7.2). These cells were then incubated with N-phenylnaphthylamine (NPN) (Sigma, USA) at a final concentration of 10 µM. 190 µl of NPN treated cells were transferred into 96-well back plates with transparent bottom and fluorescence (excitation = 350 nm, emission = 420 nm) was recorded for 60 min (reading was performed every minute) using a Synergy H1 plate reader (Biotek). On the fourteenth minute, 10 µl of the test compounds (10 µM final concentration) was added into the wells. CTAB (Sigma, USA) 200 µM or Polymyxin B (Sigma, USA) 10 µg/ml (final concentration of 0.5 µg/ml) were used as positive controls, while water was used as negative control. The fluorescence of the wells were monitored using the same settings as above. The experiment was performed three times and Figure 10 is based on a single representative experiment.",
  "data": [
    {"compound": "CCCCCCCCCCCCCCCC[N+](C)(C)C.[Br-]", "note": "[CTAB, reference compound]", "values": [
      {"measurement": "Outer membrane permeabilization, NPN fluorescence (in words)", "value": "rapid increase in florescence"}
    ]},
    {"compound": "Polymyxin B [reference compound]", "values": [
      {"measurement": "Outer membrane permeabilization, NPN fluorescence (in words)", "value": "rapid increase in florescence"}
    ]}
  ]
}
